In the case of `Cc1ccc(Nc2nccc(N(C)c3ccc4c(C)n(C)nc4c3)n2)cc1S(N)(=O)=O`, the solubility (mole fraction) (in ethanol, 288.15 K) is reported as 7.97e-06, the solubility (mole fraction) (in ethanol, 293.15 K) is reported as 1.01e-05 and the solubility (mole fraction) (in ethanol, 298.15 K) is reported as 1.27e-05. It also gave a solubility (mole fraction) (in ethanol, 303.15 K) of 1.61e-05, a solubility (mole fraction) (in ethanol, 308.15 K) of 1.96e-05 and a solubility (mole fraction) (in ethanol, 313.15 K) of 2.36e-05. The solubility (mole fraction) (in ethanol, 318.15 K) was 2.85e-05, the solubility (mole fraction) (in ethanol, 323.15 K) was 3.41e-05 and the solubility (mole fraction) (in ethanol, 328.15 K) was 4.04e-05. For the same compound, the solubility (mole fraction) (in ethyl acetate, 288.15 K) was 6.17e-06, the solubility (mole fraction) (in ethyl acetate, 293.15 K) was 8.06e-06 and the solubility (mole fraction) (in ethyl acetate, 298.15 K) was 1.04e-05. For the same compound, the solubility (mole fraction) (in ethyl acetate, 303.15 K) was 1.31e-05, the solubility (mole fraction) (in ethyl acetate, 308.15 K) was 1.63e-05 and the solubility (mole fraction) (in ethyl acetate, 313.15 K) was 2e-05. The solubility (mole fraction) (in ethyl acetate, 318.15 K) was 2.48e-05, the solubility (mole fraction) (in ethyl acetate, 323.15 K) was 3.06e-05 and the solubility (mole fraction) (in ethyl acetate, 328.15 K) was 3.7e-05. It also gave a solubility (mole fraction) (in isopropanol, 288.15 K) of 9.43e-06, a solubility (mole fraction) (in isopropanol, 293.15 K) of 1.19e-05 and a solubility (mole fraction) (in isopropanol, 298.15 K) of 1.49e-05. It also gave a solubility (mole fraction) (in isopropanol, 303.15 K) of 1.86e-05, a solubility (mole fraction) (in isopropanol, 308.15 K) of 2.25e-05 and a solubility (mole fraction) (in isopropanol, 313.15 K) of 2.71e-05. For the same compound, the solubility (mole fraction) (in isopropanol, 318.15 K) was 3.25e-05, the solubility (mole fraction) (in isopropanol, 323.15 K) was 3.9e-05 and the solubility (mole fraction) (in isopropanol, 328.15 K) was 4.69e-05.

From BigSolDB 2.1
